US20070270409A1, “Medicament for Preventing and/or Treating Ischemic Cardiovascular Disease” (Mitsubishi Pharma Corporation, priority 2004, published 2007)

Test system: patients with anterior ST-segment elevation myocardial infarction undergoing PCI
Assay: Clinical study of caldaret in patients undergoing PCI: SPECT measurements and cardiac serum markers
Format: in vivo
Details: for Infarct size (% of the left ventricle): continuous intravenous 48 hours started about 30 minutes before PCI; for Infarct size (% of the left ventricle) / EDV (left ventricular end-diastolic volume) / ESV (left ventricular end-systolic volume) / LVEF (left ventricular ejection fraction): SPECT at day 7; for Infarct size (% of the left ventricle) / Serum marker CK / Serum marker TnT / EDV (left ventricular end-diastolic volume) / ESV (left ventricular end-systolic volume) / LVEF (left ventricular ejection fraction): TIMI flow grade 0 or 1; for Serum marker CK / Serum marker TnT / EDV (left ventricular end-diastolic volume) / ESV (left ventricular end-systolic volume) / LVEF (left ventricular ejection fraction): continuous intravenous 48 hours; for Serum marker CK: AUC of CK at days 0 to 3; for Serum marker TnT: AUC of TnT at days 0 to 5
Procedure: Three hundred and eighty-seven patients with ΣST elevation of 10 mm or more undergoing PCI were divided into 3 groups: a caldaret non-administration group; a 61.5 mg caldaret administration group (57.5 mg in terms of 5-methyl-2-(1-piperazinyl)benzenesulfonic acid) (low-dose group); and a 184.6 mg caldaret administration group (172.5 mg in terms of 5-methyl-2-(1-piperazinyl)benzenesulfonic acid) (high-dose group). To these patients, administration of placebo (the caldaret non-administration group) or caldaret (the low-dose group and the high-dose group) was initiated about 30 minutes before PCI was performed. Placebo or caldaret was continuously administered intravenously for 48 hours. At day 7 after administration (the initiation day of adminstration=day 0 after administration, and hereinafter the same), the infarct size, the left ventricular end-systolic volume (ESV), the left ventricular end-diastolic volume (EDV) and the left ventricular ejection fraction (LVEF) were measured by SPECT and the cardiac serum markers were measured. Incidentally, as for the serum markers, AUC of TnT at days 0 to 5 after administration and AUC of CK at days 0 to 3 after administration were measured.
Hereinafter, the measurement results in 247 patients with TIMI flow grade 0 or 1 diagnosed with anterior ST-segment elevation myocardial infarction (88 patients in the low-dose group, 70 patients in the high-dose group and 89 patients in the caldaret non-administration group) are shown.

[1] = high-dose group, 184.6 mg caldaret
[2] = low-dose group, 61.5 mg caldaret

For `Cc1ccc(N2CCNCC2)c(S(=O)(=O)O)c1.O` [caldaret, 5-methyl-2-(1-piperazinyl)benzenesulfonic acid monohydrate], the “All the measurement parameters compared with the non-administration group” value (359 patients with anterior ST-segment elevation myocardial infarction regardless of the TIMI flow grade, low-dose and high-dose groups) was “improving tendency”, the “Infarct size (% of the left ventricle)” value [1] was 25.7 (b) % of the left ventricle and the “Serum marker CK” value [1] was 1157 (*) IU/I. For the same compound, the “Serum marker TnT” value [1] was 4.3 mg/L, the “EDV (left ventricular end-diastolic volume)” value [1] was 134.1 mL and the “ESV (left ventricular end-systolic volume)” value [1] was 78.0 mL. For the same compound, the “LVEF (left ventricular ejection fraction)” value [1] was 38.1 (*) %, the “Infarct size (% of the left ventricle)” value [2] was 24.4 (a) % of the left ventricle and the “Serum marker CK” value [2] was 1144 (*) IU/I. The “Serum marker TnT” value [2] was 5 mg/L, the “EDV (left ventricular end-diastolic volume)” value [2] was 138.4 mL and the “ESV (left ventricular end-systolic volume)” value [2] was 80.7 mL. The “LVEF (left ventricular ejection fraction)” value [2] was 36.6% and the “Effect on myocardial injury and myocardial function” value (patient with anterior ST-segment elevation myocardial infarction undergoing percutaneous coronary intervention, overall conclusion) was “can alleviate myocardial injury and preserve myocardial function”.
